Experimental findings from PMC12377485, “Targeting the ANXA8–SP1–PPA1 Axis to Modulate TCA Cycle and Matrix Deposition in Diffuse-Type Gastric Cancer” (Research, 2025) are described below.

This test addresses T1, ANXA8 (Homo sapiens, UniProt P13928).
T1 construct: commercial recombinant protein (MCE); His tag implied by RED-tris-NTA labelling
T1 sequence (P13928 1-327): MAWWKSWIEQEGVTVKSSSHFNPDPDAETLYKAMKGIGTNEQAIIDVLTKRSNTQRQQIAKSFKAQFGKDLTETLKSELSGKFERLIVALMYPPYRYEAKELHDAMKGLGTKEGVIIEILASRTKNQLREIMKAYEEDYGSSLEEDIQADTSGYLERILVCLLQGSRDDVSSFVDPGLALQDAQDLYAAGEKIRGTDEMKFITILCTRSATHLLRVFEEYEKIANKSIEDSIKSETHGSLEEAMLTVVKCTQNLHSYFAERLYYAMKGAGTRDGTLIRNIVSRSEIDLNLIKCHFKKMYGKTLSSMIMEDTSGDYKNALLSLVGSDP
Description: microscale thermophoresis (Monolith NT.[…]), one-site fit. The test is classed as binding. (In MST a laser heats a spot of the sample, and binding alters the fluorescence response.)

In the case of `CCCCNc1ncc2c(-c3ccc(CN4CCN(C)CC4)cc3)cn([C@H]3CC[C@H](O)CC3)c2n1` [UNC2025], the Kd (usually the constant that tells how readily two partners part at equilibrium) came to 83.5 nM.
